Data taken from patent publication US20150018417A1, “FATTY ACIDS AS ANTI-INFLAMMATORY AGENTS” (University of Pittsburgh - Of the Commonwealth System of …, priority 2012, published 2015).

Key:
RAW264.7 cells = test: EFAD formation in activated RAW264.7 cells treated with inhibitors; assay type: cell-based, murine
[1] = system: inducible nitric oxide synthase (iNOS); test: iNOS induction and nitrite accumulation in activated RAW264.7 cells; assay type: cell-based, murine; conditions: RAW264.7 activated with Kdo2 and IFNγ
Method: FIG. 11 illustrates modulation of anti-oxidant and inflammatory responses by 17-oxoDHA and 17-oxoDPA. RAW264.7 cells were treated with increasing concentration of 17-oxoDHA and 17-oxoDPA. (a) Cells were harvested 1 h after treatment and Nrf2 levels were quantified in nuclear extracts, (b) Cells were harvested 18 h after treatment and HO—I and Nqol (upper band) levels were measured by western blot, (c, d) RAW264.7 cells were treated with increasing concentration of 17-oxoDHA and 17-oxoDP A for 6 h and Kdo2+IFNγ were added. Samples were collected at 12 h. IL-6, MCP-I and IL-IO levels were measured in the cell media by Quantikine ELISA Kit (R&D Systems) and normalized by the total protein content (c); Nitrite levels were measured in the cell media and normalized by the total protein content and iNOS and Cox-2 levels were measured in total cell lysates (d); (e) PPARγ beta-lactamase reporter assays were performed for Rosiglitazone, 17-OxoDPA, 17-OxoDHA, 15d-PGJ2, 17-hydroxyDHA, DPA, and DHA with concentrations ranging from 0.5-10,000 nM.
For activation experiments RAW 264.7 cells were seeded, incubated overnight, and treated at approximately 80% confluence with the indicated compounds 47. Non-activated controls were treated with vehicle alone. During activation, cells were maintained in an activation medium (SMEM) of Minimum Essential Medium Eagle (Cellgro, 17-305)+2% FBS supplemented with L-glutamine (584 mg/L), Na-pyruvate (110 mg/L) and Hepes (3.57 g/L, pH 7.4). For inhibition studies, inhibitors were added to the medium at the time of activation and MTT assays were used to confirm cell viability. Cells were harvested 20 h post activation (unless otherwise indicated) in 50 mM phosphate buffer (pH 7.4) and snap frozen in liquid N2. […]
Protein concentrations of samples were measured by BCA assay (Pierce). […] Actin (detected by Sigma A2066) was used as loading control. […]
(§1) Total nitrite and nitrate concentration was measured in cell culture media by Griess reaction using the Nitrate/Nitrite Colorimetric Assay Kit (Cayman Chemical).

[2] = system: inducible nitric oxide synthase (iNOS); test: iNOS induction and nitrite accumulation in bone marrow-derived macrophages; assay type: cell-based, C57BL/6 mice; conditions: BMDMs activated with Kdo2 and IFNγ
Method: FIG. 24 illustrates that 17-oxoDHA and 7-oxoDPA modulate the inflammatory response. in bone marrow-derived macrophages. Cells were treated with increasing concentration of 17-oxoDHA and 17oxoDPA for 6 h and Kdo2 Lipid A (0.5 μg/ml) and IFNγ were added. Samples were collected at 12 h. (2) Nitrite levels were measured in the cell media and normalized to the total protein content: iNOS and COX-2 levels were measured in total cell lystaes. (b) IL-6, MCP-I, and IL-10 levels were measured in cell media and normalized to the total protein content.
(§2) Bone marrow derived macrophages were isolated from C57BL/6 mice according to the protocol developed by Davies. See Davies, J. Q. & Gordon, S. Isolation and culture of murine macrophages. Methods Mol Biol 290, 91-103 (2005).
Protein concentrations of samples were measured by BCA assay (Pierce). The following primary antibodies were used: Nrf2 (Santa Cruz, sc-722), HO—I (Assay Design, SPA-896), Nqol (Abeam, ab34173), Cox-2 (Santa Cruz, sc-1745), iNOS (BD Transduction Lab, 610332), Lamin Bl (Abeam, ab16048). Actin (detected by Sigma A2066) was used as loading control. Secondary antibodies were purchased from Santa Cruz Biotechnology.
as §1

NF-κB and Stat-1 = test: p65 nuclear translocation and DNA binding, Stat1 phosphorylation; assay type: cell-based, murine; conditions: RAW264.7
Description: The expression of iNOS and the analyzed pro-inflammatory cytokines is dependent on the activity of NF-κB and Stat-1. It has been reported that electrophilic lipids can repress the activation of these transcriptional factors either by direct adduction to the DNA binding domain of the NF-K B subunit p65 and to the inhibitor IκBα or via indirect mechanisms.

GAPDH = GAPDH (Oryctolagus cuniculus, UniProt P46406); test: In vitro alkylation of GAPDH, mass spectrometric analysis; assay type: biochemical, rabbit
Chain of GAPDH (P46406 whole entry): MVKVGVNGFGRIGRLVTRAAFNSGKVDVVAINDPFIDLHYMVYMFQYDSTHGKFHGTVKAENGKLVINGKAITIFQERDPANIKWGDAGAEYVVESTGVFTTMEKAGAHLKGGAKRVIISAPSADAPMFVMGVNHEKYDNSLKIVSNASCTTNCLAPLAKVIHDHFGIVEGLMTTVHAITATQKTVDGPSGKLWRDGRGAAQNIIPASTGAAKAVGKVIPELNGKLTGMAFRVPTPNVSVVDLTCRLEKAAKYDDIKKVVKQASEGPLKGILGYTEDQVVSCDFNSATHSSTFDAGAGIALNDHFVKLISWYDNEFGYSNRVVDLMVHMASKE
Description: FIG. 21 illustrates the mass spectrometric analysis of an in vitro reaction of GAPDHvith EFAD-2. Four residues were detected and confirmed-as being targets for EfAD-2 in treated rabbit GAPDH. The peptides were alkylated as Cys244 (a), His163 (b), Cys149 (c) and His328 (d). Upper panels show EFAD-2 modified peptides and lower panels show spectra from corresponding native peptide.
To more specifically test the binding of EFADs to nucleophilic residues in proteins, we tested whether GAPDH was alkylated by EFADs. This enzyme is a well-characterized target for electrophiles and becomes easily inactivated by nitrosylation, oxidation or nucleophilic addition.

[3] = system: bone marrow-derived macrophage (BMDM) cells; test: EFAD formation in activated bone marrow-derived macrophages; assay type: cell-based, C57BL/6 murine; conditions: BMDM activated with Kdo2 and IFNγ
Method: FIG. 8 illustrates formation of EFAD in activated primary murine macrophages. Bone marrow derived macrophages were activated with Kdo2 (0.5 μg/ml) and IFNγ (200 U/ml) and EFADs were detected 1O h post activation.
as §2
EFADs are produced by primary macrophages isolated from mouse bone marrow. […] Thus, C57BL/6 murine primary hematopoietic stem cells were differentiated to macrophages, activated with Kdo2 and IFNγ and analyzed for the formation of EFADs. Five out of the six EFAD species (EFAD-I, 2, -3, -5 and -6) were observed which co-eluted with those produced by RAW 264.7 cells and with the available standards.

Purified ovine COX-2 = target: T1, Purified ovine COX-2 (Ovis aries, UniProt P79208); test: COX-2 reaction with DPA ± ASA, OH-DPA formation; assay type: biochemical; conditions: ovine COX-2 + DPA 10 μM ± 2 mM ASA
T1 construct: Ovine placental COX-2 (Cayman 60120) was also from Cayman Chemicals; purchased Cayman Chemicals 60120; host or cells: ovine placenta
T1 sequence (P79208 17-603): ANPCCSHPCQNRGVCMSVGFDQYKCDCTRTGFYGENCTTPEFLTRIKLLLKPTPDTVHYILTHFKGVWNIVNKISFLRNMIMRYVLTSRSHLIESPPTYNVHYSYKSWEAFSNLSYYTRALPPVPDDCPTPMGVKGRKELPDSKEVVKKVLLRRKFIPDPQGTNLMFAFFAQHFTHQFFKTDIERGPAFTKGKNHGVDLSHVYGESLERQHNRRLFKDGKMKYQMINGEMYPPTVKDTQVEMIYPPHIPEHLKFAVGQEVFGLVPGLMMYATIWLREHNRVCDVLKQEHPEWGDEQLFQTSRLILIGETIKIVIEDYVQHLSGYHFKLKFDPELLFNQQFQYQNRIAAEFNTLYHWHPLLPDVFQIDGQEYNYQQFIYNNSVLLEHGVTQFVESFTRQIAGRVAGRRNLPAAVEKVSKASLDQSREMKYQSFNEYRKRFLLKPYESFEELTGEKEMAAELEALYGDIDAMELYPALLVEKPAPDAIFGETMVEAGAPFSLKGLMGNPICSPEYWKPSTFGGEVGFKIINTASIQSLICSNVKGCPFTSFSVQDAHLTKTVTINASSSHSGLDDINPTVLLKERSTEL
Method: The results of the COX-2 inhibition study implicate a the involvement of COX-2 in EFAD formation and motivated the development of an in vitro model of enzymatic EFAD synthesis. Purified ovine COX-2 was used to generate the EFAD-2 precursor (OH-DPA), (FIG. 7c-e), while the EFAD-I precursor, hydroxy-DHA (OH-DHA), was produced from DHA by COX-2 (FIGS. 19a and 19b).
Ovine placental COX-2 (20 U/ml) was preincubated in Tris/heme/phenol (THP) buffer ±2 mM ASA at 37° C. THP buffer, freshly prepared before each reaction, consisted of Tris*C1 (100 mM, pH 8.1), hematin (1 μM), and phenol (1 μM). The reaction was initiated by addition of the indicated fatty acids at a concentration of 10 μM. Reactions were terminated at the indicated time points by addition of ice-cold acetonitrile (9× reaction volume) and COX-2 protein was removed by centrifugation. Product formation was monitored by RP-HPLC-MS/MS in multiple reaction monitoring (MRM) mode following the loss Of CO2 (m/z 345/301 and m/z 343/299 for OH-DPA and OH-DHA, respectively).

| Compound | EFAD level +Celecoxib (↓COX) (RAW264.7 cells; RAW264.7 activated with Kdo2 and IFNγ, 20 h post activation) | EFAD level +Aspirin (↓COX) (RAW264.7 cells; RAW264.7 activated with Kdo2 and IFNγ, ASA 200 μM, 20 h post activation) | EFAD level +ETYA (↓COX) (RAW264.7 cells; RAW264.7 activated with Kdo2 and IFNγ, ETYA 25 μM, 20 h post activation) | EFAD level +MAFP (↓PLA2) (RAW264.7 cells; RAW264.7 activated with Kdo2 and IFNγ, MAFP 25 μM, 20 h post activation) | EFAD level +Diclofenac (↓COX) (RAW264.7 cells; RAW264.7 activated with Kdo2 and IFNγ, diclofenac 1 μM, 20 h post activation) | EFAD level +Genisteine (RAW264.7 cells; RAW264.7 activated with Kdo2 and IFNγ, genistein 25 μM, 20 h post activation) | EFAD level +Ibuprofen (↓COX) (RAW264.7 cells; RAW264.7 activated with Kdo2 and IFNγ, ibuprofen 100 μM, 20 h post activation) | EFAD level +Indomethacin (↓COX) (RAW264.7 cells; RAW264.7 activated with Kdo2 and IFNγ, indomethacin 25 μM, 20 h post activation) | iNOS induction and accumulation of nitrite in the cell media [1] | iNOS induction and accumulation of nitrite in the cell media [2] | p65 nuclear translocation and DNA binding, Stat1 phosphorylation (NF-κB and Stat-1) | adduct formation with GAPDH residues (GAPDH) | increase of EFAD formation (RAW264.7 cells; ASA 200 μM, all EFADs except EFAD-4 and EFAD-6) | extent of EFAD formation with ASA [3] | rate and extent of formation of OH-DPA (Purified ovine COX-2) |
| --- | --- | --- | --- | --- | --- | --- | --- | --- | --- | --- | --- | --- | --- | --- | --- |
| CCC=CCC=CC=CC(=O)CC=CCC=CCCCCCC(=O)O (mixture of isomers) [EFAD-2] | ↓ | ↑ | ↓ | ↓ | ↓ | ↓ | ↓ | ↓ | strongly and dose-dependently repressed | strongly and dose-dependently repressed | did not affect | readily formed adducts with Cys244, Cys149, His 163 and His328 | – | – | – |
| CC(=O)Oc1ccccc1C(=O)O [ASA, acetyl salicylic acid] | – | – | – | – | – | – | – | – | – | – | – | – | about 2.5 fold | increased about two to three fold | increased the rate and extent of formation |
